According to PubChem BioAssay (NCI):
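Tested at 5 concentrations; 48 h exposure; 96-well plates; endpoints linearly interpolated, else capped at highest concentration. TGI is the concentration that stops growth completely.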

How the values were obtained:
Test in all cases: DTP human tumour cell line panel, 48 h
[1] = tested on: NCI-H522 lung
[2] = tested on: A549 NSCLC
[3] = tested on: HOP-62 NSCLC
[4] = tested on: SK-MEL-5 melanoma
[5] = tested on: OVCAR-8 ovarian
[6] = tested on: TK-10 renal
[7] = tested on: DMS 114 small cell lung
[8] = tested on: SK-OV-3 ovarian
[9] = tested on: SF-539 CNS
[10] = tested on: XF 498 CNS
[11] = tested on: SN12C renal
[12] = tested on: HT29 colon
[13] = tested on: DMS 273 small cell lung
[14] = tested on: LOX IMVI melanoma
[15] = tested on: SW-620 colon
[16] = tested on: NCI-H460 lung
[17] = tested on: NCI-H226 lung
[18] = tested on: OVCAR-4 ovarian
[19] = tested on: M14 melanoma
[20] = tested on: UACC-257 melanoma
[21] = tested on: KM20L2 colon
[22] = tested on: SNB-78 CNS
[23] = tested on: CCRF-CEM leukemia
[24] = tested on: HL-60(TB) leukemia
[25] = tested on: SF-268 CNS
[26] = tested on: RXF 393 renal
[27] = tested on: COLO 205 colon
[28] = tested on: IGROV1 ovarian
[29] = tested on: HCC-2998 colon
[30] = tested on: UACC-62 melanoma
[31] = tested on: HCT-15 colon
[32] = tested on: HOP-18 NSCLC
[33] = tested on: CAKI-1 renal
[34] = tested on: 786-0 renal
[35] = tested on: OVCAR-5 ovarian
[36] = tested on: MALME-3M melanoma
[37] = tested on: HCT-116 colon
[38] = tested on: RXF-631 renal
[39] = tested on: M19-MEL melanoma
[40] = tested on: LXFL 529 NSCLC
[41] = tested on: UO-31 renal
[42] = tested on: SK-MEL-28 melanoma
[43] = tested on: SR leukemia
[44] = tested on: SNB-19 CNS
[45] = tested on: KM12 colon
[46] = tested on: SK-MEL-2 melanoma
[47] = tested on: MOLT-4 leukemia
[48] = tested on: A498 renal
[49] = tested on: HOP-92 NSCLC
[50] = tested on: SF-295 CNS
[51] = tested on: DLD-1 colon
[52] = tested on: EKVX NSCLC
[53] = tested on: ACHN renal
[54] = tested on: K-562 leukemia
[55] = tested on: SNB-75 CNS
[56] = tested on: NCI-H23 lung
[57] = tested on: U251 CNS
[58] = tested on: OVCAR-3 ovarian
[59] = tested on: RPMI-8226 leukemia

CCOC(=O)C1C(=O)CN2CCc3c([nH]c4ccccc34)C12C(=O)OCC (centres undefined)
TGI [1]: > 100 µM | TGI [2]: > 100 µM | TGI [3]: > 100 µM | TGI [4]: > 100 µM | TGI [5]: > 100 µM | TGI [6]: > 100 µM | TGI [7]: > 100 µM | TGI [8]: > 100 µM | TGI [9]: > 100 µM | TGI [10]: > 100 µM | TGI [11]: > 100 µM | TGI [12]: > 100 µM | TGI [13]: > 100000 nM | TGI [14]: > 100 µM | TGI [15]: > 100 µM | TGI [16]: > 100000 nM | TGI [17]: > 100 µM | TGI [18]: > 100 µM | TGI [19]: > 100 µM | TGI [20]: > 100 µM | TGI [21]: > 100 µM | TGI [22]: > 100 µM | TGI [23]: > 100 µM | TGI [24]: > 100000 nM | TGI [25]: > 100 µM | TGI [26]: > 100000 nM | TGI [27]: > 100 µM | TGI [28]: > 100 µM | TGI [29]: > 100000 nM | TGI [30]: > 100 µM | TGI [31]: > 100 µM | TGI [32]: > 100 µM | TGI [33]: > 100 µM | TGI [34]: > 100 µM | TGI [35]: > 100 µM | TGI [36]: > 100 µM | TGI [37]: > 100 µM | TGI [38]: > 100 µM | TGI [39]: > 100 µM | TGI [40]: > 100 µM | TGI [41]: > 100 µM | TGI [42]: > 100 µM | TGI [43]: > 100 µM | TGI [44]: > 100 µM | TGI [45]: > 100000 nM | TGI [46]: > 100 µM | TGI [47]: > 100 µM | TGI [48]: > 100 µM | TGI [49]: > 100 µM | TGI [50]: > 100 µM | TGI [51]: > 100 µM | TGI [52]: > 100 µM | TGI [53]: > 100 µM | TGI [54]: > 100 µM | TGI [55]: > 100 µM | TGI [56]: > 100 µM | TGI [57]: > 100 µM | TGI [58]: > 100 µM

CCCCCCCCCCCCCCCCCC(=O)NCC(COP(=O)([O-])OCC[N+](C)(C)C)OC (centres undefined)
TGI [2]: 22.4 µM | TGI [59]: 4.67 µM | TGI [3]: 8.21 µM | TGI [4]: 29.5 µM | TGI [5]: 23.6 µM | TGI [6]: 3.02 µM | TGI [7]: 22.7 µM | TGI [8]: 28.7 µM | TGI [9]: 31.8 µM | TGI [10]: 8.58 µM | TGI [11]: 15.3 µM | TGI [12]: 12.9 µM | TGI [13]: 2930 nM | TGI [14]: 23.3 µM | TGI [15]: 22.9 µM | TGI [16]: 2590 nM | TGI [17]: 8.69 µM | TGI [18]: 13 µM | TGI [19]: 25.5 µM | TGI [20]: 30.2 µM | TGI [21]: 5.5 µM | TGI [22]: 13.6 µM | TGI [23]: 5.66 µM | TGI [24]: 2900 nM | TGI [25]: 17.5 µM | TGI [26]: 2100 nM | TGI [27]: 3.24 µM | TGI [28]: 4.72 µM | TGI [29]: 2310 nM | TGI [30]: 16.9 µM | TGI [31]: 5.89 µM | TGI [32]: 6.92 µM | TGI [33]: 8.14 µM | TGI [34]: 3.07 µM | TGI [35]: 14.4 µM | TGI [36]: 20.9 µM | TGI [37]: 18.5 µM | TGI [38]: 26.8 µM | TGI [39]: 6.28 µM | TGI [40]: 19.7 µM | TGI [41]: 30.7 µM | TGI [42]: 30.6 µM | TGI [43]: 7.36 µM | TGI [44]: 3.48 µM | TGI [45]: 2090 nM | TGI [47]: 3.56 µM | TGI [48]: 10.3 µM | TGI [49]: 8.17 µM | TGI [50]: 13 µM | TGI [51]: 8.17 µM | TGI [52]: 31.1 µM | TGI [53]: 22.7 µM | TGI [55]: 15.8 µM | TGI [56]: 28.7 µM | TGI [57]: 4.04 µM | TGI [58]: 10.2 µM
